US20250034201A1, “PRODRUGS OF GANAXOLONE” (priority 2022, published 2025)
In brackets after ≈: the same amount, converted by molar mass. Like-named read-outs stand apart in the source and are kept apart here.

Legend:
[1] = Pharmacokinetic study with Compound 111 (IV 5 mg/kg, PO 25 mg/kg); type: in vivo; settings: analyte Compound 111, fasted male beagle dogs, mean; for AUC(0-t): read-out: Compound 111 PK AUClast; for MRT inf: read-out: Compound 111 PK MRTInf; for half-life: read-out: Compound 111 PK t1/2 (converted); for Vd: male, beagle, iv, 5 mg/kg
Protocol: (§1) […]; n=3) and oral (PO) administration (25 mg/kg; n=3) in fasted male beagle dogs.

[2] = Mouse liver microsomal stability; type: in vitro ADME
Protocol: (§2) For several compounds only human liver microsomal stability was tested. […] The microsomal assays were carried out with and without the addition of NADPH at a final concentration of 1 mM. For negative control samples, NADPH reagent was not added. […] Note that compounds undergo only Phase I metabolism in liver microsomes.
(§3) CLint=the intrinsic hepatic clearance (uL/min/mg), where CLint is equal to 0.693/(t1/2×Cmp)
(§4) Certain compounds were also tested in mice and dog liver microsome assays according to the protocol outlined above. […].

[3] = Stability in simulated gastric fluid (SGF); type: in vitro ADME; settings: SGF with pepsin pH 1.2, 37° C.; for half-life: simulated gi fluid, 2 μg/mL, read-out: SGF t1/2
Protocol: (§5) The stability of exemplary compounds in simulated gastric fluid (SGF) and simulated intestinal fluid (SIF) was tested according to the following protocol.

Dog plasma stability = type: in vitro ADME; settings: dog plasma; for Dog plasma t90 / half-life: 2 μg/mL, 37° C.; for half-life: read-out: Dog plasma Half life (t1/2)
in vitro [4] = type: in vitro ADME, human; settings: compound 0.5 μM; for half-life / microsomal CLint: human liver microsomes 0.5 mg/mL, with NADPH; for half-life: 37° C., read-out: Human Liver Microsomal Stability t1/2; for microsomal CLint: read-out: Human Liver Microsomal Stability CLint (uL/min/mg liver) (converted); for Human Liver Microsomal Stability no NADPH, % remain 1 h: human liver microsomes
Protocol: as §2

in vitro [5] = settings: for Human plasma t90 / Rat plasma t90: 2 μg/mL, 37° C.
Protocol: The plasma stability of exemplary compounds was tested using rat, mice, dog, and human plasma, according to the following protocol. For each test compound, samples at a final concentration of 2 μg/mL were prepared in blank plasma of selected species. All samples were incubated at 37° C. on a 150-RPM orbital shaker, and an aliquot was removed at pre-determined time points (0, 15, 30, 60, and 120 minutes). Samples were precipitated with three volumes of acetonitrile containing propranolol as internal standard, and centrifuged for 10 min at 2000 g before LC/MS/MS analysis of the supernatant solutions.

[6] = Measured solubility in buffer, LC-MS/MS; type: physicochemical; settings: aqueous buffer, thermodynamic from solid
Protocol: […] The mixture was vortexed and a magnetic stirring bar was subsequently added to the vial. The vial was placed on a magnetic stirrer with constant stirring for 16-24 hours at room temperature. The pH of the top layer solution was measured. Subsequently, 200 μL of the top layer solution was placed in a 1.5 mL microcentrifuge tube and centrifuged at 18,000 g for 10 min at room temperature. A 10 μL aliquot of supernatant was added to 990 μL of methanol:water (1/:1, v/v) and vortexed. Then, one volume of acetonitrile containing internal standard was added to one volume of the above 100-fold diluted solution and the resulting solution was vortexed and placed in 96-well plate for LC-MS/MS analysis. […] LC-MS-MS analysis was performed utilizing multiple reaction monitoring for detection of characteristic ions for each test compound, additional related analytes and internal standard.

Mouse plasma stability = type: in vitro ADME; settings: 2 μg/mL, 37° C.
[7] = Stability in simulated intestinal fluid (SIF); type: in vitro ADME; settings: SIF with pancreatin pH 6.8, 37° C.; for half-life: simulated gi fluid, 2 μg/mL, read-out: SIF t1/2
Protocol: as §5

[8] = Rat liver microsomal stability; type: in vitro ADME; settings: for half-life / microsomal CLint: rat liver microsomes 0.5 mg/mL, with NADPH; for half-life / microsomal CLint / Rat Liver Microsomal Stability no NADPH, % remain 1 h: compound 0.5 μM; for half-life: 37° C., read-out: Rat Liver Microsomal Stability t1/2; for microsomal CLint: read-out: Rat Liver Microsomal Stability CLint (uL/min/mg liver); for Comments: production of GNX (ganaxolone) in rat liver microsomes / Rat Liver Microsomal Stability no NADPH, % remain 1 h: rat liver microsomes
Protocol: as §2, §3

[9] = Dog liver microsomal stability; type: in vitro ADME; settings: for microsomal CLint / half-life: dog liver microsomes 0.5 mg/mL, compound 0.5 μM; for microsomal CLint: read-out: Dog Liver Microsomal Stability CLint (uL/min/mg liver); for half-life: read-out: Dog Liver Microsomal Stability t1/2; for Dog Liver Microsomal Stability no NADPH, % remain 1 h: dog liver microsomes
Protocol: as §2, §3, §4

[10] = Pharmacokinetic study with Compound 218 (IV 5 mg/kg, PO 25 mg/kg); type: in vivo; settings: dog, plasma, fasted male beagle dogs; for AUC(0-t): read-out: Compound 218 PK AUClast; for MRT inf: read-out: Compound 218 PK MRTInf; for half-life: read-out: Compound 218 PK t1/2 (converted); for Vd: male, beagle, 5 mg/kg
Protocol: as §1

[11] = dog, plasma, IV 5 mg/kg Compound 111
[12] = dog, plasma, oral 25 mg/kg Compound 111
[13] = pH 7.4, 50 mM phosphate buffer, 16-24 hours, room temperature, read-out: Solubility pH 7.4
[14] = buffer, pH 2.0, room temperature, read-out: Solubility pH 2.0
[15] = analyte Compound 218, IV 5 mg/kg Compound 218, mean
[16] = analyte Compound 218, oral 25 mg/kg Compound 218, mean

Structure (SMILES): CC(=O)[C@H]1CC[C@H]2[C@@H]3CC[C@H]4C[C@](C)(OC(=O)CN)CC[C@]4(C)[C@H]3CC[C@]12C [Compound 111]
- Compound 111 PK AUCInf/D ([1]; oral 25 mg/kg Compound 111): 68.7 kg·ng·h/mL/mg
- AUC(0-inf) ([1]; dog, plasma, IV 5 mg/kg Compound 111, read-out: Compound 111 PK AUCinf): 2790 ng·h/mL
- AUC(0-t) [1, 11]: 2740 ng·h/mL
- C0 ([1]; dog, plasma, IV 5 mg/kg Compound 111, read-out: Compound 111 PK C0): 1500 ng/mL
- clearance ([1]; dog, plasma, IV 5 mg/kg Compound 111, read-out: Compound 111 PK CL): 31.7 mL/min/kg
- MRT inf [1, 11]: 3.68 h
- half-life [1, 11]: 3.54 h
- AUC(0-inf) ([1]; dog, plasma, oral 25 mg/kg Compound 111, read-out: Compound 111 PK AUCInf): 1720 ng·h/mL
- AUC(0-t) [1, 12]: 1570 ng·h/mL
- Cmax ([1]; dog, plasma, oral 25 mg/kg Compound 111, read-out: Compound 111 PK Cmax): 177 ng/mL
- MRT inf [1, 12]: 10.6 h
- Tmax ([1]; dog, plasma, oral 25 mg/kg Compound 111, read-out: Compound 111 PK Tmax): 2.67 h
- half-life [1, 12]: 7.15 h
- bioavailability ([1]; dog, plasma, oral 25 mg/kg vs IV 5 mg/kg Compound 111, read-out: Compound 111 PK F (%)): 11.4%
- Vd ([1]; dog, plasma, IV 5 mg/kg Compound 111, read-out: Compound 111 PK Vss): 6.71 L/kg
- Vd ([1]; dog, plasma, IV 5 mg/kg Compound 111, read-out: Compound 111 PK Vz): 9.47 L/kg
- microsomal CLint ([2]; mouse liver microsomes 0.5 mg/mL, compound 0.5 μM, read-out: Mouse Liver Microsomal Stability CLint (uL/min/mg liver)): 11.8 µL/min/mg
- half-life ([2]; mouse liver microsomes 0.5 mg/mL, compound 0.5 μM, read-out: Mouse Liver Microsomal Stability t1/2): 1.97 h
- Mouse Liver Microsomal Stability no NADPH, % remain 1 h ([2]; mouse liver microsomes, no NADPH, 1 h): 92.7%
- SGF (% remain, 60 min) [3]: 95%
- half-life [3]: 12.4 h
- Dog plasma t90 (Dog plasma stability): 243 min
- half-life (Dog plasma stability): 26.8 h
- half-life (in vitro [4]): 3.17 h
- microsomal CLint (in vitro [4]): 7.28 µL/min/mg
- Human Liver Microsomal Stability no NADPH, % remain 1 h (in vitro [4]): 82.6%
- Human plasma t90 (in vitro [5]): 542 min
- half-life (in vitro [5]; human, plasma): 60 h
- Rat plasma t90 (in vitro [5]): 132 min
- half-life (in vitro [5]; rat, plasma): 14.6 h
- solubility [6, 13]: 29.1 µg/mL (≈ 74.7 µM)
- solubility [6, 14]: 1520 µg/mL (≈ 3900 µM)
- Mouse plasma t90 (Mouse plasma stability): 67.2 min
- half-life (Mouse plasma stability; read-out: Mouse plasma Half life (t1/2)): 7.43 h
- SIF (% remain, 60 min) [7]: 79.0%
- half-life [7]: 4.27 h
- Comments: production of GNX (ganaxolone) in rat liver microsomes [8]: In rat no GNX produced;
- half-life [8]: 5.58 h
- microsomal CLint [8]: 4.13 µL/min/mg
- Rat Liver Microsomal Stability no NADPH, % remain 1 h [8]: 99.7%
- microsomal CLint [9]: 4.95 µL/min/mg
- half-life [9]: 4.67 h
- Dog Liver Microsomal Stability no NADPH, % remain 1 h [9]: 92.3%

Structure (SMILES): CC(=O)[C@H]1CC[C@H]2[C@@H]3CC[C@H]4C[C@](C)(OC(=O)COC(=O)C(C)(C)N)CC[C@]4(C)[C@H]3CC[C@]12C [Compound 218]
- SGF (% remain, 60 min) [3]: 97%
- half-life [3]: 35 h
- Observations: stability / GNX production in dog plasma (Dog plasma stability): No GNX produced
- Dog plasma t90 (Dog plasma stability): 783 min
- half-life (Dog plasma stability): 86.6 h
- half-life (in vitro [4]): 0.24 h
- microsomal CLint (in vitro [4]): 95.3 µL/min/mg
- Human Liver Microsomal Stability no NADPH, % remain 1 h (in vitro [4]): 10.0%
- AUC(0-inf) ([10]; analyte Compound 218, IV 5 mg/kg Compound 218, mean, read-out: Compound 218 PK AUCinf): 2200 ng·h/mL
- AUC(0-t) [10, 15]: 2130 ng·h/mL
- C0 ([10]; analyte Compound 218, IV 5 mg/kg Compound 218, mean, read-out: Compound 218 PK C0): 2750 ng/mL
- clearance ([10]; analyte Compound 218, IV 5 mg/kg Compound 218, mean, read-out: Compound 218 PK CL): 37.9 mL/min/kg
- MRT inf [10, 15]: 5.03 h
- half-life [10, 15]: 17.7 h
- AUC(0-inf) ([10]; analyte Compound 218, oral 25 mg/kg Compound 218, mean, read-out: Compound 218 PK AUCInf): 415 ng·h/mL
- AUC(0-t) [10, 16]: 359 ng·h/mL
- Cmax ([10]; analyte Compound 218, oral 25 mg/kg Compound 218, mean, read-out: Compound 218 PK Cmax): 89.8 ng/mL
- MRT inf [10, 16]: 6.38 h
- Tmax ([10]; analyte Compound 218, oral 25 mg/kg Compound 218, mean, read-out: Compound 218 PK Tmax): 1.17 h
- half-life [10, 16]: 6.13 h
- bioavailability ([10]; analyte Compound 218, oral 25 mg/kg vs IV 5 mg/kg Compound 218, mean, read-out: Compound 218 PK F (%)): 3.76%
- Vd ([10]; intravenous, Compound 218 administered, read-out: volume of distribution (Vd) (dose/Co)): 1.82 L/kg
- Vd ([10]; iv, analyte Compound 218, IV 5 mg/kg Compound 218, mean, read-out: Compound 218 PK Vss): 11.4 L/kg
- Vd ([10]; iv, analyte Compound 218, IV 5 mg/kg Compound 218, mean, read-out: Compound 218 PK Vz): 57.5 L/kg
- Human plasma t90 (in vitro [5]): 8.6 min
- Observations: stability / GNX production in human plasma (in vitro [5]; human, plasma): No GNX produced
- half-life (in vitro [5]; human, plasma): 0.948 h
- Rat plasma t90 (in vitro [5]): 8.5 min
- Observations: stability / GNX production in rat plasma (in vitro [5]; rat, plasma): GNX produced in rat
- half-life (in vitro [5]; rat, plasma): 0.938 h
- solubility [6, 13]: 152 µg/mL (≈ 320 µM)
- solubility [6, 14]: 16900 µg/mL (≈ 35500 µM)
- SIF (% remain, 60 min) [7]: 95%
- half-life [7]: 22.7 h
- Comments: production of GNX (ganaxolone) in rat liver microsomes [8]: In rat no GNX produced;
- half-life [8]: 0.94 h
- microsomal CLint [8]: 26 µL/min/mg
- Rat Liver Microsomal Stability no NADPH, % remain 1 h [8]: 83%
- microsomal CLint [9]: 69 µL/min/mg
- half-life [9]: 0.335 h
- Dog Liver Microsomal Stability no NADPH, % remain 1 h [9]: 44.4%
